# According to PubChem BioAssay (NCI):
#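 Growth conditions: 96-well plates. Treatment: test compound, 48 hours, 5 concentrations. Analysis: linear interpolation between bracketing concentrations; unreached endpoints set to highest concentration. GI50 = concentration required for 50% inhibition of growth. TGI: total growth inhibition.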
# What was measured:
# Experiment in all cases: NCI-60 cell line screen, 48 h
# ACHN renal = tested on: ACHN renal
# SF-295 CNS = tested on: SF-295 CNS
# KM12 colon = tested on: KM12 colon
# CAKI-1 renal = tested on: CAKI-1 renal
# UACC-62 melanoma = tested on: UACC-62 melanoma
# RXF 393 renal = tested on: RXF 393 renal
# SR leukemia = tested on: SR leukemia
# 786-0 renal = tested on: 786-0 renal
# NCI-H23 lung = tested on: NCI-H23 lung
# EKVX NSCLC = tested on: EKVX NSCLC
Structure (SMILES),GI50 (ACHN renal) [µM],TGI (ACHN renal) [µM],GI50 (SF-295 CNS) [µM],TGI (SF-295 CNS) [µM],GI50 (KM12 colon) [µM],TGI (KM12 colon) [µM],GI50 (CAKI-1 renal) [µM],TGI (CAKI-1 renal) [µM],GI50 (UACC-62 melanoma) [µM],TGI (UACC-62 melanoma) [µM],GI50 (RXF 393 renal) [µM],TGI (RXF 393 renal) [µM],GI50 (SR leukemia) [µM],TGI (SR leukemia) [µM],GI50 (786-0 renal) [µM],TGI (786-0 renal) [µM],GI50 (NCI-H23 lung) [µM],TGI (NCI-H23 lung) [µM],GI50 (EKVX NSCLC) [µM],TGI (EKVX NSCLC) [µM]
CO/N=C(\c1ccccc1)c1cnn(-c2ccccc2)c1N,> 25,> 25,> 25,> 25,> 25,> 25,> 25,> 25,> 25,> 25,> 25,> 25,> 25,> 25,> 25,> 25,> 25,> 25,,
O=C1Nc2ccc(Cl)cc2/C1=C\c1c(-c2ccc(F)cc2)nc2ccccn12,3.25,11.4,1.87,4.23,2.04,4.61,2.25,6.45,2.58,11.5,1.87,4.2,2.92,> 100,2.18,5.2,2.37,7.57,3.08,58.1
COc1ccc(-c2cc3cccc(OC)c3c(=O)o2)cc1OC,59.3,> 100,33.8,> 100,92.2,> 100,0.094,32,0.661,> 100,32,> 100,0.436,> 100,50.2,> 100,47.9,> 100,0.83,39.5
Nc1nc2ncn(CCO)c2c(=O)[nH]1,,> 100,,> 100,,,,,,> 100,,> 100,,> 100,,> 100,,> 100,,> 100
COc1cc(-c2c3c(cn2S(=O)(=O)c2ccccc2)-c2nc(N)sc2CC3)cc(OC)c1OC,0.797,31.1,0.372,3.52,0.722,> 100,0.724,36.6,0.729,> 100,1.04,14.5,0.35,15.6,1.71,19.7,4.29,> 100,,
COc1ccc2c(c1)Oc1nc(N)c(C#N)c(N)c1C2Sc1ccc(SC)cc1 (stereo not given),1.74,3.11,1.81,3.34,1.78,3.49,,,1.81,3.33,1.72,3.11,2.25,6.66,1.66,3.06,,,1.66,3.09
CS(=O)(=O)C1S(=O)(=O)OCCOS1(=O)=O,,> 100,,> 100,,> 100,,> 100,,> 100,,> 100,,> 100,,> 100,,> 100,,> 100
COC(=O)N1[C@H]2Cc3c(OC)c(C)c(OC)c(OC)c3[C@@H]1/C(=C\c1cc(OC)c(OC)c(C)c1OC)N(Cc1ccccc1)C2=O,,> 100,,> 100,,> 100,,> 100,,> 100,,> 100,,94.1,,> 100,,> 100,,> 100
CC1OCC2OC(C)OC(C3C4=C(CC(C)(C)CC4=O)OC4=C3C(=O)CC(C)(C)C4)C2O1 (stereo not given),,> 100,,> 100,,> 100,,> 100,,> 100,,> 100,,> 100,,> 100,,> 100,,> 100
CCCOC(=O)N[C@H]1CCc2c(Br)c(OC)c(OC)c(OC)c2-c2ccc(SC)c(=O)cc21,0.0431,30.4,0.0252,0.833,< 0.0145,7.92,0.0339,19.2,0.0365,13.2,0.0397,24.8,< 0.01,> 40.5,0.0407,11.4,0.0348,> 57.3,0.0474,> 100
COC(=O)/C(=C/c1ccc(OC)cc1)C(C(=O)O)=C(C)C,,,,> 100,,> 100,,> 100,,> 100,,> 100,,> 100,,> 100,,> 100,,> 100
Cc1oc2ccccc2c(=O)c1Cn1nnc2ccccc21,,> 100,,> 100,,> 100,,,,> 100,,,,> 100,,> 100,,> 100,,> 100
COc1cc2c(cc1OC)C13CCN4CC5=CCOC(CC(=O)O)C(C5CC41)C3N2 (stereo not given),,> 100,,> 100,,> 100,,> 100,,> 100,,,,> 100,,> 100,,> 100,,> 100
Cn1ncc2cc(-c3cnc(N)c(Cl)c3N3CCC4(CCNC4=O)CC3)ccc21,,,31.2,> 100,32.3,> 100,,,30.7,> 100,8.11,54.3,6.4,57.2,11.2,> 100,46.7,> 100,12.9,> 100
O=C1Nc2ccc(F)c3c(OCCO)cc(-c4ccc[nH]4)c1c23,0.608,7.2,2.43,18.9,0.274,2.37,0.393,3.33,2.78,6.33,0.987,4.98,0.963,5.51,2.44,9.26,1.27,8.05,,
